Source: ChEMBL document CHEMBL1909046, “DrugMatrix in vitro pharmacology data”

Tests used:
Acetylcholinesterase = Acetylcholinesterase (Homo sapiens, UniProt P22303); test: DRUGMATRIX: Acetylcholinesterase enzyme inhibition (substrate: acetylthiocholine); type: cell-based, HEK293; settings: Not Active = under 50% inhibition at 10 µM
[1] = target: T1, Vasoactive intestinal polypeptide receptor 1 (Homo sapiens, UniProt P32241); type: cell membranes, Membrane; settings: ht-29; note: in other assays of this panel Not Active means under 50% inhibition at 10 µM
T1 sequence (P32241 whole entry): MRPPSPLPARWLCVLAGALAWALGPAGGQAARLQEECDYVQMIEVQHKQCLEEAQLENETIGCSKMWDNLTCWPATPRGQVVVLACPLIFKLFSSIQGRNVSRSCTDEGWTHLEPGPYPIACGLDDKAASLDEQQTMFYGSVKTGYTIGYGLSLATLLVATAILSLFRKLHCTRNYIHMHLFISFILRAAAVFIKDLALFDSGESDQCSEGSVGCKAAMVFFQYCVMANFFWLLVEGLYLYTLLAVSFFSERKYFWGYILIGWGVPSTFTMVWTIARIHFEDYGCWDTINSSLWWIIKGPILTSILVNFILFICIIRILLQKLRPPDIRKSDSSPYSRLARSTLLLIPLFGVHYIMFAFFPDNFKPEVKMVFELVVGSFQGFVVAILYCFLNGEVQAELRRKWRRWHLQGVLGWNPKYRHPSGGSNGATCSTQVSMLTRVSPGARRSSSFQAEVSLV

[2] = target: Protein kinase C alpha type (Homo sapiens, UniProt P17252); type: cell-based; settings: sf9;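 note: inhibition of PKCalpha kinase activity measured in an enzyme assay with histone as the phosphorylation substrate; in other assays of this panel Not Active means under 50% inhibition at 10 µM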
Carbonic anhydrase 2 = Carbonic anhydrase 2 (Homo sapiens, UniProt P00918); test: DRUGMATRIX: Carbonic Anhydrase II enzyme inhibition (substrate: 4-Nitrophenyl acetate (4-NPA)); type: tissue-based, Erythrocyte; settings: erythrocyte; Not Active = under 50% inhibition at 10 µM
Cytochrome P450 2E1 = Cytochrome P450 2E1 (Homo sapiens, UniProt P05181); settings: bti-tn-5b1-4; note: in other assays of this panel Not Active means under 50% inhibition at 10 µM
[3] = target: Sodium-dependent dopamine transporter (Homo sapiens, UniProt Q01959); test: DRUGMATRIX: Dopamine Transporter radioligand binding (ligand: [125I] RTI-55); type: cell membranes, CHO-K1, Membrane; settings: cho-k1; Not Active = under 50% inhibition at 10 µM
[4] = DRUGMATRIX: GABAA, Flunitrazepam, Central radioligand binding (ligand: [3H] Flunitrazepam); type: cell membranes, Rattus norvegicus, Wistar, Brain, Membrane; settings: Not Active = under 50% inhibition at 10 µM

Sequence of Sodium-dependent dopamine transporter (Q01959 whole entry): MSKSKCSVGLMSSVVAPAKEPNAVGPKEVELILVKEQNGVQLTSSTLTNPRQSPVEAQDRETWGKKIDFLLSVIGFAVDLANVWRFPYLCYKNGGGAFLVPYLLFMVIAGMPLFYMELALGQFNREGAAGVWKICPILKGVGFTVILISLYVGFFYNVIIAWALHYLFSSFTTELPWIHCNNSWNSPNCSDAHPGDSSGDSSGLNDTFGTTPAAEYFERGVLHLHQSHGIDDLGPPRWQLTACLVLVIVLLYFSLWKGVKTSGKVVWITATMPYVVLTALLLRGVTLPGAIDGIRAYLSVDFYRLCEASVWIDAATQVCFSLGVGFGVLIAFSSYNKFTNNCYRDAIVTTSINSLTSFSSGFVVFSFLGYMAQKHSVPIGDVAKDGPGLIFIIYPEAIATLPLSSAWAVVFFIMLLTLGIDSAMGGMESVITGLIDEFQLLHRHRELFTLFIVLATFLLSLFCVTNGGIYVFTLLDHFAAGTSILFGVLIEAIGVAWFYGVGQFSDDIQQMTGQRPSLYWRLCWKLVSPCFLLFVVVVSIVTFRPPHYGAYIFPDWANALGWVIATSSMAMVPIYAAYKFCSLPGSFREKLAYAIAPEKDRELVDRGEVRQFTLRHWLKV
Sequence of Cytochrome P450 2E1 (P05181 whole entry): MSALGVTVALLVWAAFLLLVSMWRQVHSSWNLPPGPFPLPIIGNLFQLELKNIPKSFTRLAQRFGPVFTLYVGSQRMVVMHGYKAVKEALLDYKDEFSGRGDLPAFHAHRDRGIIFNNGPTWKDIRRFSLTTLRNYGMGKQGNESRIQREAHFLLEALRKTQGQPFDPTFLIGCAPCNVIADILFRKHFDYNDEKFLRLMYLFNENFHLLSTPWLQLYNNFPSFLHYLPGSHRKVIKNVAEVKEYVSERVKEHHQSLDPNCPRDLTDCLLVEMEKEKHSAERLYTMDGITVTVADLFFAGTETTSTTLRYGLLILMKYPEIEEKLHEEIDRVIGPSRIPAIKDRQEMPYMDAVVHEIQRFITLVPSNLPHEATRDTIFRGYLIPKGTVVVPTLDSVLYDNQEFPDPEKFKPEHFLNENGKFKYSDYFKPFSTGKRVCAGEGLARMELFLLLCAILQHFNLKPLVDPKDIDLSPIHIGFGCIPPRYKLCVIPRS
Sequence of Acetylcholinesterase (P22303 whole entry): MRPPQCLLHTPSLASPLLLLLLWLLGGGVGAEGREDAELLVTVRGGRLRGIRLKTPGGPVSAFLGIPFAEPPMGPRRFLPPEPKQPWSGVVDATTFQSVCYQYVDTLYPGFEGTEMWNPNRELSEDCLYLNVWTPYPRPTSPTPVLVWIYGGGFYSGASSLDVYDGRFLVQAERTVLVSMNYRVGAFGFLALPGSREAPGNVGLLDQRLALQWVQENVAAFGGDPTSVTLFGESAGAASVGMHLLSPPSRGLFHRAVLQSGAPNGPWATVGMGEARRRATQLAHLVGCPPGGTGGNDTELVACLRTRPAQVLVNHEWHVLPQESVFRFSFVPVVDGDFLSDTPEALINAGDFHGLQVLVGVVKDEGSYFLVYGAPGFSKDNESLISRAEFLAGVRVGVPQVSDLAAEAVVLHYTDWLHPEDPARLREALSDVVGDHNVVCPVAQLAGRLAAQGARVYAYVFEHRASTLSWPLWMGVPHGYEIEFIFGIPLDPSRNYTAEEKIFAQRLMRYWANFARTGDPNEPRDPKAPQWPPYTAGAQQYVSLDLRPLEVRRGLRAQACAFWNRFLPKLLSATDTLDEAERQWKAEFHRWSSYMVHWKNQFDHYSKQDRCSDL

SMILES | IC50 (Acetylcholinesterase; hek293) | IC50 [1] | IC50 [2] | IC50 (Carbonic anhydrase 2) | IC50 (Cytochrome P450 2E1) | Ki (Cytochrome P450 2E1) | IC50 [3] | IC50 [4] | Ki [4] | IC50 (Acetylcholinesterase; read-out: IC50) [µM]
CC[C@H]1OC(=O)[C@H](C)[C@@H](O[C@H]2C[C@@](C)(OC)[C@@H](O)[C@H](C)O2)[C@H](C)[C@@H](O[C@@H]2O[C@H](C)C[C@H](N(C)C)[C@H]2O)[C@](C)(OC)C[C@@H](C)C(=O)[C@H](C)[C@@H](O)[C@]1(C)O [CLARITHROMYCIN] | Not Active | Not Active | Not Active | Not Active | Not Active | Not Active | Not Active | Not Active | Not Active | –
CCc1oc2ccccc2c1C(=O)c1cc(Br)c(O)c(Br)c1 [BENZBROMARONE] | Not Active | Not Active | Not Active | Not Active | Not Active | Not Active | Not Active | Not Active | Not Active | –
CC[C@]1(O)CC[C@H]2[C@@H]3CCC4=CCCC[C@@H]4[C@H]3CC[C@@]21C | – | Not Active | Not Active | Not Active | Not Active | Not Active | Not Active | Not Active | Not Active | 6.5
CC(C)(Oc1ccc(C2CC2(Cl)Cl)cc1)C(=O)O (configuration not stated) [CIPROFIBRATE] | Not Active | Not Active | Not Active | Not Active | Not Active | Not Active | Not Active | Not Active | Not Active | –
CO[C@H]1[C@@H](O)[C@H](N)[C@@H](O[C@H]2O[C@H]([C@H](C)N)CC[C@H]2N)[C@H](O)[C@@H]1N(C)C(=O)CN [ASTROMICIN] | Not Active | Not Active | Not Active | Not Active | Not Active | Not Active | Not Active | Not Active | Not Active | –
Clc1cc2c(cc1Cl)Oc1cc(Cl)c(Cl)cc1O2 [2,3,7,8-TETRACHLORODIBENZO-P-DIOXIN] | Not Active | Not Active | Not Active | Not Active | Not Active | Not Active | Not Active | Not Active | Not Active | –
CNC(=C[N+](=O)[O-])NCCSCc1csc(CN(C)C)n1 [NIZATIDINE] | – | Not Active | Not Active | Not Active | Not Active | Not Active | Not Active | Not Active | Not Active | 5.61
N=C(N)N/N=C/c1c(Cl)cccc1Cl [GUANABENZ] | Not Active | Not Active | Not Active | Not Active | Not Active | Not Active | Not Active | Not Active | Not Active | –
CC(C)C[C@H]1C(=O)N2CCC[C@H]2[C@]2(O)O[C@](NC(=O)[C@@H]3C=C4c5cccc6[nH]c(Br)c(c56)C[C@H]4N(C)C3)(C(C)C)C(=O)N12 [BROMOCRIPTINE] | Not Active | Not Active | Not Active | Not Active | Not Active | Not Active | Not Active | Not Active | Not Active | –
COc1ccc2cc(CCC(C)=O)ccc2c1 [NABUMETONE] | Not Active | Not Active | Not Active | Not Active | Not Active | Not Active | Not Active | Not Active | Not Active | –
CC(C(=O)O)c1ccc(CC2CCCC2=O)cc1 (configuration not stated) [LOXOPROFEN] | Not Active | Not Active | Not Active | Not Active | Not Active | Not Active | Not Active | Not Active | Not Active | –
CCCCCC[C@H]1C(=O)O[C@H](C)[C@H](NC(=O)c2cccc(NC=O)c2O)C(=O)O[C@@H](C)[C@@H]1OC(=O)CC(C)C [ANTIMYCIN A] | Not Active | Not Active | Not Active | Not Active | Not Active | Not Active | Not Active | Not Active | Not Active | –
COc1ccc(Cc2nccc3cc(OC)c(OC)cc23)cc1OC [PAPAVERINE] | Not Active | Not Active | Not Active | Not Active | Not Active | Not Active | Not Active | Not Active | Not Active | –
O=c1cc(-c2ccccc2)oc2ccc3ccccc3c12 [BETA-NAPHTHOFLAVONE] | Not Active | Not Active | Not Active | Not Active | Not Active | Not Active | Not Active | Not Active | Not Active | –
CC(=O)O[C@]1(C(C)=O)CC[C@H]2[C@@H]3C=C(Cl)C4=CC(=O)[C@@H]5C[C@@H]5[C@]4(C)[C@H]3CC[C@@]21C [CYPROTERONE ACETATE] | Not Active | Not Active | Not Active | Not Active | Not Active | Not Active | Not Active | Not Active | Not Active | –
CCN[C@@H](C)Cc1cccc(C(F)(F)F)c1 [DEXFENFLURAMINE] | Not Active | Not Active | Not Active | Not Active | Not Active | Not Active | Not Active | Not Active | Not Active | –
Nn1nnc2ccccc21 | Not Active | Not Active | Not Active | Not Active | Not Active | Not Active | Not Active | Not Active | Not Active | –
O=C(O)Cc1ccc(-c2ccccc2)cc1 [FELBINAC] | Not Active | Not Active | Not Active | Not Active | Not Active | Not Active | Not Active | Not Active | Not Active | –
